Measurements as given in patent US7928089B2, “Mucoactive agents for treating a pulmonary disease” (Vectura Limited, priority 2003, dated 2011).

Test: Stage 1 heparin dose-response: CF sputum viscoelasticity by magnetic microrheometry
Set-up: species or system human
Conditions: 30 minutes at 37°, 10 rad/s, 10 CF sputum samples; FIG. 3; NAL 309 mcg/mL
Protocol: An experimental programme was conducted to test the mucolytic activity of selected mucoactive agents. The primary objective of this initial protocol is to determine the mucolytic activity (capacity to reduce the viscosity and elasticity and thereby affect clearability) of heparin in cystic fibrosis sputum at concentrations of potential clinical relevance. This constitutes the Stage 1 experiment, below. The secondary objective is to compare heparin with other heparin fractions in a screening test for activity, incorporated in the Stage 2 experiment. […]
The magnetic microrheometer was described by King (King M (1988) “Magnetic microtheometer” Methods in Bronchial Mucology, pp. 73-83.). This instrument is used to measure the bulk viscosity and elasticity of microliter quantities of mucus. […]
When interpreting the results of the studies discussed herein, the primary variable of interest is the decrease in mucus viscoelasticity, expressed as delta log G* (corrected for vehicle treatment). […]
From each of 10 CF sputum samples, up to 6 aliquots of approximately 10-15 mg each were incubated for 30 minutes at 37° with either 0.9% NaCl or with one of the concentrations of heparin, or with N-acetylcysteine L-lysinate (NAL) (309 mcg/mL). Prior to incubation and following it, sputum viscoelasticity at 10 rad/s was determined by magnetic microrheometry. […]

Substance: N-acetylcysteine L-lysinate [NAL]
- mucolytic effect (fractional decrease in G*): effective at a lower concentration compared to heparin
